The source made the active and inactive calls. The calls are words filed in the database; no cut-off is given here.
How the values were obtained:
[1] = Inhibition of rat FTase using farnesylpyrophosphate and dansyl-GCVLS as substrate preincubated for 5 mins measured after 15 mins by fluorescence assay
[2] = Inhibition of rat GGTase-1 using geranylgeranyl-pyrophosphate and dansyl-GCVLL as substrate preincubated for 5 mins measured after 15 mins by fluorescence assay
[3] = species: Rattus norvegicus; assay: Bisubstrate inhibition of rat FTase at 20 to 40 nM using farnesylpyrophosphate and dansyl-GCVLS as substrate by double-reciprocal plot analysis
[4] = species: Rattus norvegicus; assay: Bisubstrate inhibition of rat GGTase-1 at 20 to 40 nM using geranylgeranyl-pyrophosphate and dansyl-GCVLL as substrate by double-reciprocal plot analysis

Structure (SMILES) | IC50 [1] [nM] | IC50 [2] [nM] | inhibition [3] | inhibition [4]
O=C1NCC(=O)N(Cc2ccc(F)cc2)[C@@H]1Cc1c[nH]c2ccccc12 | 44.7 | 480 |  | 
O=C1NCC(=O)N(Cc2ccco2)[C@H]1Cc1c[nH]cn1 | 97.2 | 980 |  | 
O=C1NCC(=O)N(Cc2ccc(Oc3cccc(Cl)c3)cc2)[C@@H]1Cc1c[nH]c2ccccc12 | 17.8 | 32.3 |  | 
O=C1NCC(=O)N(Cc2ccco2)[C@@H]1Cc1ccccc1 | 177 | 620 |  | 
COc1ccc(C[C@H]2C(=O)NCC(=O)N2Cc2ccc(OC)cc2)cc1 | 188 | 880 |  | 
O=C1NCC(=O)N(Cc2ccc(Cl)cc2)[C@H]1Cc1c[nH]c2ccccc12 | 42 | 520 |  | 
CC(C)C[C@@H]1C(=O)NCC(=O)N1Cc1ccco1 | 421 | 1660 |  | 
CSCC[C@H]1C(=O)NCC(=O)N1Cc1ccco1 | 189 | 1890 |  | 
COc1ccc(CN2C(=O)CNC(=O)[C@@H]2CSCc2ccccc2)cc1 | 45.1 | 160 |  | 
COc1ccc(CN2C(=O)CNC(=O)[C@@H]2CC(C)C)cc1 | 582 | 3920 |  | 
COc1ccc(CN2C(=O)CNC(=O)[C@@H]2Cc2ccccc2)cc1 | 183 | 1960 |  | 
O=C1NCC(=O)N(Cc2ccco2)[C@@H]1Cc1c[nH]cn1 | 70.6 | 350 |  | 
N#Cc1ccc(CN2C(=O)CNC(=O)[C@@H]2Cc2c[nH]c3ccccc23)cc1 | 43.2 | 320 |  | 
N#Cc1ccc(CN2C(=O)CNC(=O)[C@H]2Cc2c[nH]c3ccccc23)cc1 | 38.7 | 130 |  | 
COc1c(Cl)cc(Cl)cc1CN1C(=O)CNC(=O)[C@H]1Cc1c[nH]c2ccccc12 | 22.1 | 78.2 |  | 
CC(C)[C@@H]1C(=O)NCC(=O)N1Cc1ccco1 | 346 | 1920 |  | 
O=C1NCC(=O)N(Cc2ccc(Oc3cccc(Cl)c3)cc2)[C@H]1Cc1c[nH]c2ccccc12 | 26.5 | 96.5 |  | 
COc1ccc(CN2C(=O)CNC(=O)[C@@H]2Cc2c[nH]cn2)cc1 | 107 | 590 |  | 
O=C1NCC(=O)N(Cc2ccc(N3CCOCC3)cc2)[C@H]1Cc1c[nH]c2ccccc12 | 225 | 123 |  | 
COc1ccc(CN2C(=O)CNC(=O)[C@H]2CCSC)cc1 | 109 | 320 |  | 
O=C1NCC(=O)N(Cc2ccc(F)cc2)[C@H]1Cc1c[nH]c2ccccc12 | 78.2 | 770 |  | 
O=C1NCC(=O)N(Cc2ccc(Cl)cc2)[C@@H]1Cc1c[nH]c2ccccc12 | 33.1 | 170 |  | 
COc1ccc(CN2C(=O)CNC(=O)[C@H]2Cc2ccccc2)cc1 | 142 | 460 |  | 
COc1ccc(CN2C(=O)CNC(=O)[C@@H]2C)cc1 | 1100 | 5210 |  | 
O=C1NCC(=O)N(Cc2ccco2)[C@H]1CSCc1ccccc1 | 68.9 | 270 |  | 
O=C1NCC(=O)N(Cc2ccco2)[C@@H]1Cc1c[nH]c2ccccc12 | 52.4 | 220 |  | 

Structure (SMILES) | IC50 [1] [nM] | IC50 [2] [nM] | inhibition [3] | inhibition [4]
CC(C)[C@H]1C(=O)NCC(=O)N1Cc1ccco1 | 541 | 3200 |  | 
C[C@@H]1C(=O)NCC(=O)N1Cc1ccco1 | 971 | 3830 |  | 
O=C1NCC(=O)N(Cc2ccco2)[C@@H]1CSCc1ccccc1 | 99.1 | 760 |  | 
COc1ccc(CN2C(=O)CNC(=O)[C@@H]2C(C)C)cc1 | 774 | 3820 |  | 
COc1ccc(C[C@H]2C(=O)NCC(=O)N2Cc2ccco2)cc1 | 234 | 1050 |  | 
COc1ccc(C[C@@H]2C(=O)NCC(=O)N2Cc2ccc(OC)cc2)cc1 | 129 | 380 |  | 
COc1ccc(CN2C(=O)CNC(=O)[C@@H]2Cc2c[nH]c3ccccc23)cc1 | 58.8 | 520 |  | 
O=C1NCC(=O)N(Cc2ccco2)[C@H]1Cc1ccccc1 | 160 | 1820 |  | 
C[C@H]1C(=O)NCC(=O)N1Cc1ccco1 | 1560 | 5220 |  | 
O=C1NCC(=O)N(Cc2ccc(Br)cc2)[C@@H]1Cc1c[nH]c2ccccc12 | 29.8 | 120 |  | 
O=C1NCC(=O)N(Cc2ccc(N3CCOCC3)cc2)[C@@H]1Cc1c[nH]c2ccccc12 | 132 | 88.1 |  | 
COc1ccc(CN2C(=O)CNC(=O)[C@@H]2CCSC)cc1 | 190 | 700 |  | 
COc1ccc(CN2C(=O)CNC(=O)[C@H]2CC(C)C)cc1 | 346 | 1200 |  | 
COc1ccc(C[C@@H]2C(=O)NCC(=O)N2Cc2ccco2)cc1 | 118 | 410 |  | 
O=C1NCC(=O)N(Cc2ccc(Br)cc2)[C@H]1Cc1c[nH]c2ccccc12 | 41.7 | 630 |  | 
O=C1NCC(=O)N(Cc2ccco2)[C@H]1Cc1c[nH]c2ccccc12 | 72.1 | 790 |  | 
COc1ccc(CN2C(=O)CNC(=O)[C@H]2C)cc1 | 621 | 2830 |  | 
COc1ccc(CN2C(=O)CNC(=O)[C@H]2C(C)C)cc1 | 479 | 1700 |  | 
COc1ccc(CN2C(=O)CNC(=O)[C@H]2Cc2c[nH]cn2)cc1 | 78.5 | 180 |  | 
COc1ccc(CN2C(=O)CNC(=O)[C@H]2CSCc2ccccc2)cc1 | 70.7 | 470 |  | 
O=C1NCC(=O)N(Cc2ccc(Oc3ccc(Cl)c(Cl)c3)cc2)[C@H]1Cc1c[nH]c2ccccc12 | 22.3 | 92.3 |  | 
COc1c(Cl)cc(Cl)cc1CN1C(=O)CNC(=O)[C@@H]1Cc1c[nH]c2ccccc12 | 34 | 219 |  | 
COc1ccc(CN2C(=O)CNC(=O)[C@H]2Cc2c[nH]c3ccccc23)cc1 | 39.8 | 150 |  | 
CC(C)C[C@H]1C(=O)NCC(=O)N1Cc1ccco1 | 476 | 3880 |  | 
O=C1NCC(=O)N(Cc2ccc(Oc3ccc(Cl)c(Cl)c3)cc2)[C@@H]1Cc1c[nH]c2ccccc12 | 13.1 | 21 | Active | Active
CSCC[C@@H]1C(=O)NCC(=O)N1Cc1ccco1 | 121 | 730 |  | 

Source: ChEMBL document CHEMBL1781910, “Design, synthesis, and characterization of piperazinedione-based dual protein inhibitors for both farnesyltransferase and geranylgeranyltransferase-I” (Eur J Med Chem, 2011)
